What was measured:
[1] = tested on: Fmr1-K02 mice and wildtype (WT) littermates; test: Inspection of animals for toxicity in Fragile X studies; type: in vivo; settings: fmr1-knockout and wild-type mice
Experimental: Experiments were conducted in accordance with the United Kingdom Animals (Scientific Procedures) Act of 1986. Fmr1-K02 mice and wildtype (WT) littermates were generated on a C57BL/6J background and repeatedly backcrossed onto a C57BL/6J background for more than eight generations and send to Chile by the Jackson's laboratory. Mice were grouping housed (4-6 per cage) and all animals were provided with ad libitum food and water unless otherwise stated. Mice were maintained on a 12 h light/dark cycle (lights off 19:00 to 7:00) in a temperature-controlled environment (21±1° C.).
Animals were inspected for differences in coat appearance, whether any piloerection is present, eye condition (runny eyes or porphyria, ptosis) gait appearance, tremor, tail tone, reactivity to handling, etc.

[2] = tested on: fmr1-knockout mice and wild-type littermates; test: Open Field (OF) test; type: in vivo; settings: for exploratory behavior (number of squares entered): fmr1-knockout animals; for number of squares entered: wild-type animals
Experimental: The fmr1-knockout 2 mice (C57BL/6 background) were housed in groups of the same genotype in a temperature and humidity controlled room with a 12-h light-dark cycle (lights on 7 am to […]). Testing was conducted during the light phase. Food and water were available ad libitum. Testing was conducted on fmr1-knockout mice and their wild-type littermates. Experiments were conducted in line with the requirements of the UK Animals (Scientific Procedures) Act, 1986.
The Open Field (OF) test is a combined test that is used to determine anxiety/hyperactivity, and for habituation to a novel environment, one of the most elementary forms of learning, in which decreased exploration as a function of repeated exposure to the same environment is taken as an index of memory. This is normally studied in two sessions of exposure to the open field, a 10-min and a 24 hr habituation session.
The device used for this study is a grey PVC enclosed arena 50×30 cm divided into 10 cm squares. Mice are brought to the experimental room 5-20 min before testing. A mouse is placed into a corner square facing the corner and observed for 3 min. The number of squares entered (whole body) and rears (both front paws off the ground, but not as part of grooming) are counted. The latency to the first rear is also noted. The movement of the mouse around the field was recorded with a video tracking device for 300s (vNT4.0, Viewpoint). The latency for the mouse to enter the brightest, central part of the field total time spent in this central region, and total activity (in terms of path length in centimeters), were recorded.
The open field (OF) test is a test used to characterize explorative behavior, anxiety, and or hyperactivity in animals habituated to daily handling under novel and familiar conditions. During exposure to the open field mice will habituate to the environment and thus explore less, decreasing the amount movement they show over time.
In the present experiment, we recorded movement and rearing during an initial exposure (T1), during a second exposure after 10 minutes (T2) and during a third exposure after 24 hours (T3). Failures to reduce locomotion or rearing at 10 minutes and 24 hours indicate deficits in short and long term memory, respectively.

ERK1/2 = test: Phosphorylated ERK by Western blot; type: in vivo, mice; settings: full brain lysates; fmr1-knockout animals vs vehicle
Experimental: Phosphorylation levels of ERK1/2 and Akt of full brain lysates were evaluated using Western blots. The mice were sacrificed and the brains removed 12 days after the last injection, and immediately after the last behavioral test. Other studies measured pERK and pAkt in blood lymphocytes. The results of Western analysis were normalized to the amount of GAPDH protein seen in each blot.

[3] = tested on: layer 5 pyramidal neurons in sections of motor cortex; test: Golgi staining of cortical dendritic spines; type: in vivo, mice; settings: knockout neurons; P28
Experimental: Samples (<1 cm) from P28 mice are fixed in 10% formalin and 3% potassium bichromate for 24 hours. Tissue is then transferred into 2% silver nitrate for 2 days in the dark at room temperature. Sections from these samples are then cut at 30 μm thickness into distilled water. Sections corresponding to motor cortex are mounted onto slides, air dried for 10 minutes, and then dehydrated through sequential rinses of 93% alcohol, 100% alcohol, and xylene, and then sealed with a coverslip. Images re acquired at 10× (whole cell) and 100× (spine imaging) using a Zeiss Pascal 3 Exciter confocal microscope.
We use Golgi staining to label neurons sparsely and distinctly, and applied high-resolution confocal imaging to measure dendritic spine density and morphology in the labelled cells, restricting analysis to layer 5 pyramidal neurons in sections of motor cortex from critical period mice (P28).
While low-magnification imaging clearly delineates the extent of the dendrites of the pyramidal cells we use higher magnifications to count synaptic contacts and determine the morphological class of each spine. We classify spines as either large and bulbous (“mushroom”, M), short and stubby (“stubby”, S), short and thin (“thin”, T) or filopodia (F).

interleukin-6 = test: PBBI in rats: IL-6 ELISA; type: in vivo
Description: (§1) The unilateral frontal PBBI model, which mimics the ballistic dynamics of a bullet or fragment wound to the head (Williams, 2003; Williams, 2006), was induced by stereotactic insertion of a custom probe through the right frontal cortex. A temporary cavity was formed by the rapid inflation/deflation (i.e. <40 msec) of an elastic balloon attached to the end of the probe. The PBBI apparatus consisted of a computer-controlled hydraulic pressure generator (Mitre Corp McLean, Va.), a PBBI probe and a stereotaxic frame equipped with a custom-designed probe holder as previously described (Lu, 2009; Williams, 2003). The injury severity was determined by the size of the balloon under control of the computerized hydraulic pressure. The balloon diameter calibrated to 0.63 cm expansion represented 10% of the total rat brain volume thus expressing a 10% PBBI. All surgeries were done under anaesthesia. Groups tested: Sham+vehicle, PBBI+vehicle, PBBI+cG-2-AllylP (30 mg/kg by oral gavage, 30 min post-injury, and again once daily until endpoint). AU procedures were approved by the Institutional Animal Care and Use Committee of WRAIR. Animals were housed in a facility accredited by the AAALAC.
cG-2-AllylP (or vehicle) was administered to the animals via oral gavage at a dose of 30 mg/kg.
Target proteins were quantified with interleukin 1 beta (“IL-1beta”) (GenWay Biotech GWB-SKR107) and interleukin-6 (“IL-6”) (GenWay Biotech GWB-ZZD100) ELISAs according to manufacturer's instructions. Levels were calculated and normalized to total protein concentration as determined by BCA assay (n=9-10 per group).

BCL2 = test: PBBI in rats: BCL2 Western blotting; type: in vivo; settings: 24 hr, 3 and 7 days after PBBI
Description: as §1, with “AAALAC. […]” for “AAALAC.”
Samples were analysed at 24 hr and 3 and 7 days post-injury for all groups (sham+vehicle, PBBI+vehicle, PBBI+cG-2-AllylP). […]

Q: With `C=CC[C@]12CCCN1C(=O)CNC2=O` [cG-2-AllylP, (8aS)-Allyl-hexahydropyrrolo[1,2-a]pyrazine-1,4-dione] as the molecule, how does the “toxicity (coat, piloerection, eyes, gait, tremor, tail tone, reactivity)” value [1] read?
A: The value was “No instances of toxicity have been observed”.

Q: What about the “exploratory behavior (number of squares entered)” value (“exploratory behavior” below) ([2]; T1) of the same molecule?
A: The value was “significantly reduced the exploratory behavior of fmr1-knockout animals”.

Q: And the “number of squares entered” value ([2]; T1)?
A: Its value is “about the same number of squares”.

Q: What about the “exploratory behavior” value ([2]; T2 (10 minutes)) of the same molecule?
A: Its value is “normalized the magnitude of their behavior to that of the wild-type animals”.

Q: What about the “number of squares entered” value ([2]; T2 (10 minutes)) of the same molecule?
A: The value was “about 45 squares”.

Q: What about the “exploratory behavior” value ([2]; T3 (24 hours)) of the same molecule?
A: The value was “normalized exploratory behavior at T3”.

Q: What about the “number of squares entered” value ([2]; T3 (24 hours)) of the same molecule?
A: Its value is 25-30 squares.

Q: And the ERK phosphorylation (ERK1/2)?
A: The ERK phosphorylation was “significantly reduced ERK phosphorylation”.

Q: And the “density of spines per unit branch” value [3]?
A: Its value is “largely ameliorated in the knockout with treatment”.

Q: What about the IL-6 levels (interleukin-6; 24 hrs. after PBBI, 30 mg/kg oral gavage) of the same molecule?
A: Its IL-6 levels is “decreased IL-6 levels”.

Q: What about the IL-6 levels (interleukin-6; 3 days after PBBI, 30 mg/kg oral gavage once daily) of the same molecule?
A: Its IL-6 levels is “little effect at 3 days”.

Q: And the IL-6 levels (interleukin-6; 7 days after PBBI, 30 mg/kg oral gavage once daily)?
A: The IL-6 levels was “decreased IL-6 levels”.

Q: And the BCL2 levels (BCL2)?
A: The BCL2 levels was “did not significantly alter”.
